The test system of assay [1] is murine bone marrow-derived macrophages. Kind of assay: area under cytotoxicity dose-response curve (AUC (% cytotoxicity x dose, relative)); higher = more cytotoxic. To be noted: duration: 6 days; dose range: 0.13-80 uM, 8 points. The method, boiled down: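 Cytotoxicity is expressed as the area under the dose–response curve from GraphPad Prism version 10. To obtain it, primary murine bone marrow-derived macrophages were incubated for 6 days at 37 °C in 5% CO2 across final concentrations of 80–0.13 μM. Viability came from CellTiter-Glo luminescence, and percent cytotoxicity was normalised to vehicle and positive control wells.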

Assay [2] concerns Mycobacterium tuberculosis CDC1551 (intracellular, in murine BMDM). The experiment in a line: area under intracellular growth-inhibition dose-response curve (AUC (% inhibition x dose, relative)); higher = more potent. To be noted: duration: 6 days; dose range: 0.13-80 uM, 8 points. In outline: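 In 384-well opaque plates, primary murine bone marrow-derived macrophages were infected with luciferase-expressing M. tuberculosis CDC1551 (multiplicity of infection 1, 1 h) 24 h after seeding, then treated for 6 days across final concentrations of 80–0.13 μM. Growth was measured by Bright-Glo luciferin assay, normalised to a reference drug control and the lowest-concentration wells. The reported value is the area under the growth-inhibition dose–response curve from GraphPad Prism.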

Molecules are shown by their SMILES.

For `CC(C)[C@H](CN1CCC[C@H]1CN1C(N)=NC[C@@H]1Cc1ccccc1)N1C[C@@H](Cc2ccccc2)N(CCc2ccc(Cl)c(Cl)c2)C1=N`, the “area under cytotoxicity dose-response curve” value in assay [1] worked out at 52.7. In addition, the “area under intracellular growth-inhibition dose-response curve” value in assay [2] stood at 211.
Taken in the same sequence, the figures for `Cc1ccc(/C=C2\SC(N3CCCC3)=NC2=O)cc1` were 22.9 and 220.
Taken in the same sequence, the figures for `COc1cc(/C=N/NC(=O)C23CC4CC(CC(C4)C2)C3)cc(Br)c1O` were 23.8 and 154.
Taken in the same sequence, the figures for `Cc1ccc(C2=NN(C(=O)CCl)C(c3cccs3)C2)o1` (configuration not stated) were 25.9 and 105.
`O=C(NC1CCCCCCC1)c1ccc(F)cc1`: in assay [1], the “area under cytotoxicity dose-response curve” value amounted to 16.9. For the same compound, the “area under intracellular growth-inhibition dose-response curve” value in assay [2] is 180.
Taken in the same sequence, the figures for `Cc1[nH]c2ccccc2c1/C=N/NC(N)=S` were 102 and 131.
Taken in the same sequence, the figures for `O=C(NC1C2CC3CC(C2)CC1C3)c1ccc2c(c1)OCO2` (configuration not stated) were 123 and 226.
Taken in the same sequence, the figures for `O=C(NCCc1ccccc1)c1ccc(Br)o1` were 46.2 and 193.
As to `O=[N+]([O-])c1ccc(/C=N/Nc2nc(N3CCCC3)nc(N3CCCC3)n2)o1`, the “area under cytotoxicity dose-response curve” value in assay [1] was determined as 171. Also, in assay [2], the “area under intracellular growth-inhibition dose-response curve” value amounted to 168.
Consider `Cl.c1ccc(CN2CCC3(CCCc4ccccc43)CC2)cc1`, for which the “area under cytotoxicity dose-response curve” value in assay [1] was found to be 45.5. Besides, the “area under intracellular growth-inhibition dose-response curve” value in assay [2] is 160.
On to `C=C1c2cccc(O)c2C(=O)C2C(=O)[C@]3(O)C(=O)C(C(N)=O)C(=O)[C@@H](N(C)C)[C@@H]3[C@@H](O)[C@H]12.Cl` (some centres not stated), for which, in assay [1], the “area under cytotoxicity dose-response curve” value is 3.53. Also, in assay [2], the “area under intracellular growth-inhibition dose-response curve” value stood at 272.
On the same counts, the results for `CCOc1ccc(/C=N/NC(N)=S)cc1` are 28.9 and 270.
On the same counts, the results for `O=C(OCC(=O)C12CC3CC(CC(C3)C1)C2)c1ccc(CO)cc1` are less than 0 and 124.
`S=C(Nc1ccc(N2CCOCC2)cc1)Nc1ccc2snnc2c1`: the “area under cytotoxicity dose-response curve” value in assay [1] stood at 57.1. Also, the “area under intracellular growth-inhibition dose-response curve” value in assay [2] turned out to be 235.
`COc1ccc(/C=N/Nc2nc(-c3ccc(C)cc3)c(NC(C)=O)s2)cc1`: in assay [1], the “area under cytotoxicity dose-response curve” value was less than 0. Also, in assay [2], the “area under intracellular growth-inhibition dose-response curve” value was 272.
Taken in the same sequence, the figures for `O=C(CSc1nc2ccccc2s1)NCc1cc([N+](=O)[O-])ccc1O` were 48 and 39.4.
On to `CC(=O)OCC1=C(C(=O)O)N2C(=O)C(NC(=O)Cn3nc(C(F)F)c(Cl)c3C)C2SC1` (configuration not stated), for which the “area under cytotoxicity dose-response curve” value in assay [1] came to 2.26. The “area under intracellular growth-inhibition dose-response curve” value in assay [2] was found to be 195.
Taken in the same sequence, the figures for `CC(C)(C)C(=O)/C(=C/c1ccncc1)n1cncn1` were 106 and 32.
Taken in the same sequence, the figures for `NC(=S)N/N=C/c1ccc(-c2cc(Cl)ccc2Cl)o1` were 33.2 and 247.
Taken in the same sequence, the figures for `CC1CC(C)CN(C(=O)C2CCC(CNc3c(N4CCCCC4)c(=O)c3=O)CC2)C1` (configuration not stated) were 0.615 and 125.
With `COc1cc(/C=N/NC(=O)c2ccncc2)ccc1OCC(=O)Nc1ccccc1`, the “area under cytotoxicity dose-response curve” value in assay [1] was less than 0. Further, the “area under intracellular growth-inhibition dose-response curve” value in assay [2] worked out at 232.
Taken in the same sequence, the figures for `COc1ccc(Cn2c(SCc3ccccc3C)nc3cc(OC)c(OC)cc3c2=N)cc1` were 2.96 and 172.
On the same counts, the results for `Cc1ccc(-c2nn(-c3ccccc3)cc2/C=N/NC(=O)c2ccncc2)o1` are 48.7 and 261.
Turning to `CC(=O)O[C@H]1C[C@@]2(C)[C@@H](C[C@@H](O)[C@H]3[C@@]4(C)CC[C@@H](O)[C@@H](C)[C@@H]4CC[C@@]32C)/C1=C(\CCC=C(C)C)C(=O)O`, in assay [1], the “area under cytotoxicity dose-response curve” value was less than 0. In addition, the “area under intracellular growth-inhibition dose-response curve” value in assay [2] was found to be 206.
For `O=C(N/N=C/c1ccccc1C(=O)O)c1ccncc1`, the “area under cytotoxicity dose-response curve” value in assay [1] turned out to be 37.2. In addition, the “area under intracellular growth-inhibition dose-response curve” value in assay [2] amounted to 266.
Taken in the same sequence, the figures for `CCc1ccc(NC(=S)Nc2ccc3c[nH]nc3c2)cc1` were 33.8 and 237.
On the same counts, the results for `NS(=O)(=O)c1cccc(NC(=O)COC(=O)c2ccc(S(=O)(=O)N3CCOCC3)cc2)c1` are 10 and 112.
Taken in the same sequence, the figures for `Cc1cc(C)n(CC(=O)NC2C(=O)N3C(C(=O)O)=C(CSc4nnc(C)s4)CSC23)n1` (configuration not stated) were 11.2 and 122.
As for `c1csc(Cc2nn3c(-c4[nH]nc5c4CCC5)nnc3s2)c1`, the “area under cytotoxicity dose-response curve” value in assay [1] was found to be 44.4. Moreover, in assay [2], the “area under intracellular growth-inhibition dose-response curve” value stood at 251.
Taken in the same sequence, the figures for `O=C(/C=C/c1ccc([N+](=O)[O-])o1)NNC(=O)c1ccc(F)cc1` were 51.9 and 19.6.
For the compound `O=C(N/N=C/C=C/c1ccccc1[N+](=O)[O-])c1ccncc1`, the “area under cytotoxicity dose-response curve” value in assay [1] stood at 244. The “area under intracellular growth-inhibition dose-response curve” value in assay [2] was 244.
With `CCN1CCN(c2cc3c(cc2F)c(=O)c(C(=O)O)cn3C2CC2)CC1`, the “area under cytotoxicity dose-response curve” value in assay [1] amounted to 7.13. Also, the “area under intracellular growth-inhibition dose-response curve” value in assay [2] came to 258.
Taken in the same sequence, the figures for `O=C(Nc1ccc(C(=O)Oc2ccccc2)c(O)c1)c1ccccc1` were 93.1 and 210.
Taken in the same sequence, the figures for `Cc1cc(C)c2cc(C(=O)Nc3ccc(C)c(F)c3)[nH]c2c1` were less than 0 and 214.
On to `COc1ccccc1/C=C1\SC(=S)N(CCC(=O)Nc2ccc(C(=O)O)c(O)c2)C1=O`, for which, in assay [1], the “area under cytotoxicity dose-response curve” value was less than 0. The “area under intracellular growth-inhibition dose-response curve” value in assay [2] was determined as 124.
Taken in the same sequence, the figures for `CCOc1ccc(OCCCC(=O)NNC(=O)c2ccncc2)cc1` were less than 0 and 272.
In the case of `Cc1ccccc1-n1c(C)cc(/C=N/NC(=O)c2ccncc2)c1C`, in assay [1], the “area under cytotoxicity dose-response curve” value was less than 0. In addition, in assay [2], the “area under intracellular growth-inhibition dose-response curve” value came out at 214.
Taken in the same sequence, the figures for `CNc1nc(N2CCc3ccccc32)ncc1F` were less than 0 and 140.
Taken in the same sequence, the figures for `CCn1cc(CNC(=O)c2cc([N+](=O)[O-])c(C)c([N+](=O)[O-])c2)cn1` were 16.8 and 226.
As to `Cc1cccc(-n2c(C)cc(/C=N/NC(N)=S)c2C)c1`, the “area under cytotoxicity dose-response curve” value in assay [1] is less than 0. Besides, the “area under intracellular growth-inhibition dose-response curve” value in assay [2] turned out to be 235.
On the same counts, the results for `BrC(=C\c1ccccc1)/C=N/n1cnnc1` are 97.5 and 5.21.
On the same counts, the results for `C[C@H]1c2cccc(O)c2C(=O)C2C(=O)C3(O)C(=O)C(C(N)=O)C(=O)[C@@H](N(C)C)[C@@H]3[C@@H](O)[C@@H]21.Cl` (some centres not stated) are 33.4 and 259.
On the same counts, the results for `N#Cc1ccc(OCC(=O)N2CCN(S(=O)(=O)c3ccc(Cl)s3)CC2)cc1` are 65.3 and 31.9.
For `CC[C@@H](C)[C@H](CNC)NC[C@@H](Cc1cccc2ccccc12)NCCc1cccc(C(F)(F)F)c1`, the “area under cytotoxicity dose-response curve” value in assay [1] came out at 117. The “area under intracellular growth-inhibition dose-response curve” value in assay [2] is 144.
Taken in the same sequence, the figures for `O=C(NCc1ccc(F)cc1)c1ccc(Br)o1` were 42.3 and 228.
Taken in the same sequence, the figures for `CCCN1CNC(=S)N(c2ccc(C(=O)OCC)cc2)C1` were 9 and 83.8.
As to `Cc1cccc(/C=N/NC(=O)c2ccncc2)n1`, the “area under cytotoxicity dose-response curve” value in assay [1] was determined as 14. Moreover, the “area under intracellular growth-inhibition dose-response curve” value in assay [2] was 269.
Taken in the same sequence, the figures for `O=C(NCc1ccc2c(c1)OCO2)c1cccc(F)c1` were less than 0 and 222.
Taken in the same sequence, the figures for `COC(=O)c1ccc(COc2ccc(/C=N/NC(N)=S)cc2)o1` were 50.5 and 277.
Regarding `CCOC(=O)C(CC)(CC)/C(C)=N/NC(=O)CC#N`, the “area under cytotoxicity dose-response curve” value in assay [1] came to 20. For the same compound, in assay [2], the “area under intracellular growth-inhibition dose-response curve” value is 19.5.
Regarding `CCOC1OC(O)=C(Cl)/C1=N\c1ccccc1C` (configuration not stated), the “area under cytotoxicity dose-response curve” value in assay [1] is less than 0. Further, in assay [2], the “area under intracellular growth-inhibition dose-response curve” value was found to be 231.
